Test results: patent publication US20250288518A1, “METHODS OF USING RADIPRODIL IN THE TREATMENT OF DISORDERS” (GRIN Therapeutics, Inc., priority 2023, published 2025)
Several values for one entry are separate records, joined by “and”; a condition that tells them apart may be missing. Identical values can stand only once. Like-named read-outs stand apart in the source and are kept apart here.

Tests used:
[1] = tested on: pentylenetetrazole (PTZ)-induced generalized clonic-tonic seizures; assay: juvenile PTZ rat model; type: in vivo
Description: (§1) Radiprodil anticonvulsant efficacy was specifically tested in rats at different time points during postnatal development, using pentylenetetrazole (PTZ) as a convulsant, to induce generalized clonic-tonic seizures. The activity of radiprodil in this juvenile PTZ rat model was tested up to 30 mg/kg, showing efficacy at a dose of 1 mg/kg. The calculated free plasma fraction of an orally administered 1 mg/kg dose is expected to give around 60% occupancy of the NR2B receptor, based on an ex-vivo occupancy study in rodents and assuming a 1:1 brain to plasma ratio, see below for further details.

[2] = target: T1, NR2B receptor (Rattus norvegicus, UniProt P35439+Q00960); assay: NR2B occupancy at rat doses, based on ex-vivo occupancy study in rodents
T1 construct: occupancy of the NR2B receptor, based on an ex-vivo occupancy study in rodents; from tissue; host or cells: rodent brain (ex vivo occupancy; brain is implied by the 1:1 brain to plasma ratio)
T1 sequence (Q00960 27-1482, other chains not shown): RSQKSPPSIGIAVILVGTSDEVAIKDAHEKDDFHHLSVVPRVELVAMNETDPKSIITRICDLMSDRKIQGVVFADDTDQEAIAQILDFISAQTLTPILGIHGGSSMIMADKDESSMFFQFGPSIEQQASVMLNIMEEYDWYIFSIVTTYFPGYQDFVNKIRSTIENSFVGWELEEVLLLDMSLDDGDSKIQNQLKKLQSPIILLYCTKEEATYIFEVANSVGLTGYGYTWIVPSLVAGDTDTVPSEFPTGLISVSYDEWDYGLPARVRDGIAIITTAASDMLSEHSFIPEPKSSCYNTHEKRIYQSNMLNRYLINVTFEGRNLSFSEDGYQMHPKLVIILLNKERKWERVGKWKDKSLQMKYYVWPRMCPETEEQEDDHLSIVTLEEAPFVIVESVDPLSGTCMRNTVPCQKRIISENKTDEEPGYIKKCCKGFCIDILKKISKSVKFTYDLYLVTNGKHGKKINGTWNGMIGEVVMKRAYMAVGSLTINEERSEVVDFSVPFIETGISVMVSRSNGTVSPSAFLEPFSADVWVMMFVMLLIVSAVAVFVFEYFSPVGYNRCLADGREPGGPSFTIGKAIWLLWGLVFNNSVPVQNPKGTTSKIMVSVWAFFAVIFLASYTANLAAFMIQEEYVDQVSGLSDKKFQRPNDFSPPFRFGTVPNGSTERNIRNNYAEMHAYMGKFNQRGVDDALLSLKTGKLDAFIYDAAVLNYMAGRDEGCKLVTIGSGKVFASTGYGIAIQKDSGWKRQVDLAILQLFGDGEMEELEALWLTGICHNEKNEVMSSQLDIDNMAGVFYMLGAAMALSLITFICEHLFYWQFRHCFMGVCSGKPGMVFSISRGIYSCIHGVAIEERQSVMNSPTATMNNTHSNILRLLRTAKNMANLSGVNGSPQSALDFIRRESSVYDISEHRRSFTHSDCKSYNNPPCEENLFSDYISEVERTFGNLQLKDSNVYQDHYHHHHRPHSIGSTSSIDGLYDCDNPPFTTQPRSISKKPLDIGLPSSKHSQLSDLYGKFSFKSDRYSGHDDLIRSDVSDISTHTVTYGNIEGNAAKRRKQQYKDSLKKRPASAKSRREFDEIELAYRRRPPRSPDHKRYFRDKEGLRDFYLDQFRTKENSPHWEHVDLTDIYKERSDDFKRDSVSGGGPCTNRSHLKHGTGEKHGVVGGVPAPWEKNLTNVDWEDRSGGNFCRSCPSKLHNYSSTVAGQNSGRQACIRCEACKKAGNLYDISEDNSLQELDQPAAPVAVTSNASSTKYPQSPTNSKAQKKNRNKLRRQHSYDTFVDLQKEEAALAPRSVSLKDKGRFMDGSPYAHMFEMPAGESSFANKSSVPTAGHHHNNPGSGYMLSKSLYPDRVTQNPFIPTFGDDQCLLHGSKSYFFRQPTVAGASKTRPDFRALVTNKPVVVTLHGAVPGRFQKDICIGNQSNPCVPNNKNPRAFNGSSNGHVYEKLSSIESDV
Description: as §1

[3] = tested on: audiogenic seizures; assay: audiogenic seizure model (generalized seizures); type: in vivo; conditions: adult mice
[4] = in vivo; conditions: rat
[5] = in vivo; conditions: dog
[6] = 9-month dog toxicology study; type: in vivo; conditions: 1.5 mg/kg/day
[7] = tested on: countable motor seizure (CMS); assay: phase 1B study, seizure cohort: efficacy; type: in vivo, human
Description: Investigational Product (IP): Radiprodil. This example describes an open-label, multicenter phase 1B study being conducted to evaluate the safety, tolerability, and pharmacokinetics (PK) of multiple individually titrated doses of radiprodil and to assess the treatment effect on seizures in participants with drug-resistant seizures caused by gain-of-function (GoF) variants in the GRIN1, GRIN2A, GRIN2B, or GRIN2D genes (GRIN2B GoF variants in the US only).
(§2) This is a global, open-label, multicenter, phase 1B study to evaluate the safety, tolerability, and PK of multiple individually titrated doses of radiprodil and to assess the treatment effect on seizures and behavioral symptoms in 2 cohorts of pediatric participants: 1 cohort of participants with drug resistant seizures (with or without behavioral symptoms) (Cohort 1) and 1 cohort of participants with behavioral symptoms (but no qualifying seizures) (Cohort 2) caused by GoF variants in the GRIN1, 2A, 2B, or 2D genes (GRIN2B GoF variants only in the US). These GoF variants are gene mutations that cause an increased sensitivity of NMDA receptors to glutamate or through decreased inhibition by magnesium, altered affinity to glycine, or other relevant changes considered to increase NMDA transmission. Drug-resistant seizures are defined as a failure to respond to at least 2 antiseizure medication (ASM) therapies taken at adequate doses for an appropriate duration with assured medication adherence as determined by the treating physician. Participants with seizures to be enrolled in the first cohort should have at least 1 observable motor seizure per week and ≥4 observable motor seizures in the prospective 4-week Observation Period.
A seizure cohort of patients from 6 months to 12 years of age with known GoF variants confirmed via method described in Myers, et al., Hum Mol Genetics. 2023, 32:2857-2871, was enrolled. The patients had drug-resistant seizures with or without behavioral symptoms. Patients also had ≥1 weekly countable motor seizure (CMS) with ≥4 generalized or focal seizures during the observation period. Motor seizures included drop seizures; generalized onset seizures included tonic-clonic, tonic, bilateral clonic, atonic, myoclonic-atonic, and myoclonic-tonic-clonic seizures; and focal seizures included seizures with bilateral hyperkinetic motor features and clonic seizures.
Primary endpoints included safety, tolerability, and radiprodil plasma concentrations. Key secondary endpoints (aka, change from baseline in observable daily CMS frequency using an electronic diary (eDiary)), included ≥50%, ≥90%, and 100% reductions from baseline in seizure frequency; proportion of seizure-free days; and Clinical Global Impressions of Change (CGI-C) and Caregiver Global Impressions of Change (CaGI-C), from baseline to the end of the maintenance period.

[8] = phase 1B study, seizure cohort: treatment emergent adverse events; type: in vivo
Description: The primary objectives of this study are to determine the safety and tolerability of multiple individually titrated doses of radiprodil as an add-on therapy to standard of care (SOC) in pediatric participants; establish a safe and well-tolerated dose; and to determine the pharmacokinetics (PK) and plasma exposure of radiprodil. Endpoints of these primary objectives include: adverse events (AEs), serious adverse events (SAEs), and adverse drug reactions (ADRs) (frequency, type, severity, and duration); changes in vital signs; physical examination findings; 12-lead electrocardiogram (ECG) findings; clinically significant changes in laboratory parameters; emergence of new seizure types; occurrence of suicidal ideation or behavior; determination of the maximum tolerated dose of radiprodil based on safety and tolerability data; and plasma concentrations of radiprodil.
Pyrexia, diarrhoea, and respiratory tract infection were the most common TEAEs. Three patients experienced SAEs, all unrelated to radiprodil treatment. One each of adenovirus infection, bronchiolitis, and viral pneumonia

[9] = tested on: behavioral symptoms; assay: phase 1B study, behavioral cohort: global impressions of change; type: in vivo, human; conditions: clinicians and caregivers
Description: as §2
A behavioral cohort of patients from 6 months to 12 years of age with known GoF variants confirmed via method described in Myers, et al., Hum Mol Genetics. […]

[10] = phase 1B study, behavioral cohort: treatment emergent adverse events; type: in vivo, human
Description: Pyrexia, diarrhoea, and respiratory tract infection were the most common TEAEs. Three patients experienced SAEs, all unrelated to radiprodil treatment. One each of adenovirus infection, bronchiolitis, and viral pneumonia.

[11] = Phase 1 study of normal healthy human subjects, 45 mg Radiprodil (30% Formulation) fed and fasted; type: in vivo; conditions: for AUC(0-inf) / AUC(0-t) / Cmax: human, in vivo, oral; for AUC(0-inf): read-out: AUCinf Geometric LSM; for AUC(0-t): read-out: AUClast Geometric LSM; for Cmax: read-out: Cmax Geometric LSM
[12] = cited from earlier work
[13] = 135 mg daily (45 mg tid) up to 14 weeks; cited from earlier work
[14] = all unrelated to radiprodil treatment
[15] = 2 participants, doses up to 0.2 mg/kg bid

Compound: O=C(Nc1ccc2[nH]c(=O)oc2c1)C(=O)N1CCC(Cc2ccc(F)cc2)CC1 [Radiprodil]
- tonic phases of PTZ-induced convulsions ([1]; 10 mg/kg, postnatal day 12 and postnatal day 18 rats): completely blocked
- dose showing efficacy in juvenile PTZ rat model ([1]; tested up to 30 mg/kg): 1 mg/kg
- NR2B occupancy ([2]; 10 mg/kg): ~90%
- occupancy of the NR2B receptor ([2]; orally administered 1 mg/kg, calculated free plasma fraction, 1:1 brain to plasma ratio assumed): around 60%
- anticonvulsant efficacy in audiogenic seizure model [3]: anticonvulsant activity in the same range of doses/exposures
- AUC [4]: 9550 ng·h/mL
- AUC0-24h at NOAEL [4]: 9,555 ng×h/mL
- AUC(0-t) [4]: 9560 ng·h/mL
- Cmax [4]: 1400 ng/mL
- Cmax at NOAEL [4]: 1404 ng/mL
- NOAEL at 4 weeks [4]: 100 mg/kg/day
- exposure (total Cmax and AUC) of 0.05 mg/kg bid lower than NOAEL exposure [4]: more than 20 fold
- NOAEL ([4]; 4 weeks): 100 mg/kg/day
- NOAEL at 13 weeks [5]: 1.5 mg/kg/day
- AUC(0-t) ([5]; 1.5 mg/kg/day): 3750 ng·h/mL
- Cmax ([5]; 1.5 mg/kg/day): 722 ng/mL
- AUC(0-t) ([6]; dog, plasma, at 6-months, read-out: average AUC0-24h): 7060 ng·h/mL
- seizures or convulsions ([6]; up to 6 months): no seizures or convulsions were observed
- median reduction in CMS ([7]; 8-week maintenance period): ~86%
- patients seizure-free during 80% of days ([7]; 8-week maintenance period): 6 of 7
- patients with reduction in CMS of 100% ([7]; 8-week maintenance period): 14.3%
- patients with reduction in CMS of ≥50% ([7]; 8-week maintenance period): 71.4%
- patients with reduction in CMS of ≥90% ([7]; 8-week maintenance period): 42.9%
- patients with reductions from baseline in CMS frequency ([7]; seizure cohort): 6 of 7
- CGI-C and CaGI-C ([7]; seizure cohort, clinicians and caregivers): clinical improvement in most patients
- Abnormal behavior, % ([8]; Seizure Cohort (n = 8)): (12.5) %
- Agitation, % ([8]; Seizure Cohort (n = 8)): (12.5) %
- Any TEAE, % ([8]; Seizure Cohort (n = 8)): (100) %
- Cough, % ([8]; Seizure Cohort (n = 8)): (25.0) %
- Diarrhoea, % ([8]; Seizure Cohort (n = 8)): (25.0) %
- Dystonia, % ([8]; Seizure Cohort (n = 8)): (25.0) %
- Fatigue, % ([8]; Seizure Cohort (n = 8)): (12.5) %
- Gastroenteritis, % ([8]; Seizure Cohort (n = 8)): (25.0) %
- Pyrexia, % ([8]; Seizure Cohort (n = 8)): (50.0) %
- Respiratory tract infection, % ([8]; Seizure Cohort (n = 8)): (25.0) %
- patients with SAEs [8, 14]: Three
- tolerability ([8]; seizure cohort): generally well-tolerated
- CGI-C and CaGI-C [9]: clinical improvement in most patients
- Abnormal behavior, % ([10]; Behavioral Cohort (n = 7)): 28.6%
- Agitation, % ([10]; Behavioral Cohort (n = 7)): 28.6%
- Any TEAE, % ([10]; Behavioral Cohort (n = 7)): 85.7%
- Cough, % ([10]; Behavioral Cohort (n = 7)): 14.3%
- Diarrhea, % ([10]; Behavioral Cohort (n = 7)): 28.6%
- Dystonia, % ([10]; Behavioral Cohort (n = 7)): 14.3%
- Fatigue, % ([10]; Behavioral Cohort (n = 7)): 28.6%
- Gastroenteritis, % ([10]; Behavioral Cohort (n = 7)): 14.3%
- Pyrexia, % ([10]; Behavioral Cohort (n = 7)): 14.3%
- Respiratory tract infection, % ([10]; Behavioral Cohort (n = 7)): 28.6%
- patients with SAEs [10, 14]: Three
- tolerability ([10]; behavioral cohort): generally well-tolerated
- AUCinf Geometric LSM Ratio (Fed/Fasted) [11]: 148.4%
- AUClast Geometric LSM Ratio (Fed/Fasted) [11]: 155.8%
- Cmax Geometric LSM Ratio (Fed/Fasted) [11]: 259.6%
- AUC(0-inf) ([11]; Fasted): 1890 ng·h/mL
- AUC(0-t) ([11]; Fasted): 1780 ng·h/mL
- Cmax ([11]; Fasted): 81.3 ng/mL
- AUC(0-inf) ([11]; Fed): 2810 ng·h/mL
- AUC(0-t) ([11]; Fed): 2770 ng·h/mL
- Cmax ([11]; Fed): 211 ng/mL
- AUC0-4 [12, 15]: up to 1036 ng×h/mL
- AUC(0-t) [12, 15]: up to 1036 ng×h/mL
- Cmax [12, 15]: up to 208 ng/mL
- safety and tolerability ([12]; 3 infants, treatment for up to 34 days): safe and well tolerated
- AUC [13]: 9000 ± 2387 ng·h/mL
- AUC0-24h [13]: 6875 ng·h/mL
- Cmax [13]: 487 ± 129 ng/mL and 482 ± 129 ng/mL
